From patent publication US10098887B2, “Antiviral compounds and methods of use thereof” (Trana Discovery, Inc., priority 2010, dated 2018)

What follows are molecules tested on interaction between Human tRNA^Lys3 and HIV-1 genomic RNA (assay: Biochemical HIV-1 tRNA Inhibition Assay (AlphaScreen)). Details: active compounds from high throughput screening, prioritized on IC50.
Assay type: binding
Design: key: +: showing some activity; ++: intermediate activity; +++: the highest activity
Description: The methods for detecting binding of the target RNA to the tRNA or the inhibition of such binding may be performed using any method for such detection. For example, the AlphaScreen® assay (Packard Instrument Company, Meriden, Conn.). AlphaScreen® technology is an “Amplified Luminescent Proximity Homogeneous Assay” method utilizing latex microbeads (250 nm diameter) containing a photosensitizer (donor beads), or chemiluminescent groups and fluorescent acceptor molecules (acceptor beads). Upon illumination with laser light at 680 nm, the photosensitizer in the donor bead converts ambient oxygen to singlet-state oxygen. The excited singlet-state oxygen molecules diffuse approximately 250 nm (one bead diameter) before rapidly decaying. If the acceptor bead is in close proximity to the donor bead (i.e., by virtue of the interaction of the target RNA and tRNA fragment), the singlet-state oxygen molecules reacts with chemiluminescent groups in the acceptor beads, which immediately transfer energy to fluorescent acceptors in the same bead. These fluorescent acceptors shift the emission wavelength to 520-620 nm, resulting in a detectable signal. Antagonists of the interaction of the target RNA with the tRNA fragment will thus inhibit the shift in emission wavelength, whereas agonists of this interaction would enhance it.
In the AlphaScreen configuration (FIG. 3) the assay is done in solution using the same RNA as the immobilization assay. The donor and acceptor beads are bound to their respective RNA's. During the screening the RNAs and test drugs/small molecules are incubated together and formation of the complex is measured using the AlphaScreen detection conditions. Utilization of the AlphaScreen assay may allow for the assay to be run at a lower RNA concentration at room temperature, and increase the stability of the complex.
HIV-1 has evolved to use Human tRNA^Lys3 as a primer for initiation of reverse transcription. Therefore, the interaction between tRNA^Lys3 and viral genomic RNA represents a potential novel target for HIV-1 drug development. Based on this hypothesis, a biochemical assay to identify inhibitors of the interaction between Human tRNA^Lys3 and HIV-1 genomic RNA was developed by TRANA Discovery and transferred to Southern Research Institute for high-throughput screening. This assay was developed as a homogeneous amplified luminescent proximity assay using AlphaScreen™ reagents from PerkinElmer. Based on this assay technology, the AlphaScreen™ luminescent signal serves as a mechanism for detecting the interaction between RNA molecules that represent Human tRNA^Lys3 and HIV-1 genomic RNA. The inhibition of the interaction between these RNA molecules by test compounds is detected as a decrease in the AlphaScreen™ luminescent signal.
A preliminary 15,000 compound screen (NINDS Diversity Set) was previously completed and the results were reported through NIAID contract N01-AI-70042. For the results described herein, a 101,000 compound library that was purchased from ChemBridge for the NIAID TAACF program was used. This library was carefully selected for diversity and minimal similarity to the 100,000 compound NINDS library, which is also planned to be screened using the TRANA Discovery Biochemical HIV-1 tRNA Inhibition Assay. The compounds were screened at a concentration of 12.5 μg/mL (first 3 batches) or 25 μg/mL (fourth and final batch).
For `Cc1cccc(CNc2ccc3c(c2)OCO3)c1` [1,3-benzodioxol-5-yl(3-methylbenzyl)amine], the Activity was “+”.
`O=C1c2ccccc2C(=O)c2c1cccc2N1CCCC1` [1-(1-pyrrolidinyl)anthra-9,10-quinone] was tested, and the Activity was “++”.
For `CC(=NNc1ccccc1[N+](=O)[O-])c1ccco1` [1-(2-furyl)ethanone (2-nitrophenyl)hydrazone], the Activity was “+”.
For `O=C1NC(=S)N(c2cccc(Cl)c2)C(=O)C1=Cc1ccco1` [1-(3-chlorophenyl)-5-(2-furylmethylene)-2-thioxodihydro-4,6(1H,5H)-pyrimidinedione], the Activity was “+”.
In the case of `Cc1cccc(N2C(=O)C(=Cc3cccn3C)C(=O)NC2=S)c1` [1-(3-methylphenyl)-5-[(1-methyl-1H-pyrrol-2-yl)methylene]-2-thioxodihydro-4,6(1H,5H)-pyrimidinedione], the Activity is reported as “++”.
With `O=C1NC(=S)N(c2ccc(Cl)cc2)C(=O)C1=Cc1ccco1` [1-(4-chlorophenyl)-5-(2-furylmethylene)-2-thioxodihydro-4,6(1H,5H)-pyrimidinedione] the Activity was “+”.
`Cn1cccc1C=C1C(=O)NC(=S)N(c2ccc(Cl)cc2)C1=O` [1-(4-chlorophenyl)-5-[(1-methyl-1H-pyrrol-2-yl)methylene]-2-thioxodihydro-4,6(1H,5H)-pyrimidinedione] was tested, and the Activity was “+”.
For `O=C1NC(=S)N(c2ccc(Cl)cc2)C(=O)C1=Cc1ccc([N+](=O)[O-])o1` [1-(4-chlorophenyl)-5-[(5-nitro-2-furyl)methylene]-2-thioxodihydro-4,6(1H,5H)-pyrimidinedione], the Activity was “+”.
`CCC(=NNc1ccccc1[N+](=O)[O-])c1ccc(O)cc1` [1-(4-hydroxyphenyl)-1-propanone (2-nitrophenyl)hydrazone] was tested, and the Activity was “++”.
`COc1ccc(N2CCN(c3cc(Cl)ccc3[N+](=O)[O-])CC2)cc1` [1-(5-chloro-2-nitrophenyl)-4-(4-methoxyphenyl)piperazine] was tested, and the Activity was “+”.
For `CN(C)c1cccc2c1C(=O)c1ccccc1C2=O` [1-(dimethylamino)anthra-9,10-quinone], the Activity was “++”.
`CC1(C)CC(Nc2cccc3c2C(=O)c2ccccc2C3=O)CC(C)(C)N1` [1-[(2,2,6,6-tetramethyl-4-piperidinyl)amino]anthra-9,10-quinone] was tested, and the Activity was “+”.
With `Nc1c(Cl)cc(N2CCCC2)c2c1C(=O)c1ccccc1C2=O` [1-amino-2-chloro-4-(1-pyrrolidinyl)anthra-9,10-quinone] the Activity was “+”.
In the case of `Cc1ccc(N2CCCCC2)c2c1C(=O)c1ccccc1C2=O` [1-methyl-4-(1-piperidinyl)anthra-9,10-quinone], the Activity is reported as “++”.
`Cc1ccc(Nc2cc(C)c(O)c(C)c2)cc1` [2,6-dimethyl-4-[(4-methylphenyl)amino]phenol] was tested, and the Activity was “++”.
With `O=C1C(Cl)=C(NCc2ccccc2)C(=O)c2ccccc21` [2-(benzylamino)-3-chloronaphthoquinone] the Activity was “+”.
For `Cc1cccc(NC2=C(N(C)C)C(=O)c3ccccc3C2=O)c1` [2-(dimethylamino)-3-[(3-methylphenyl)amino]naphthoquinone], the Activity was “++”.
With `Cc1cccc(NC2=C(NCCO)C(=O)c3ccccc3C2=O)c1` [2-[(2-hydroxyethyl)amino]-3-[(3-methylphenyl)amino]naphthoquinone] the Activity was “+”.
`Cc1ccccc1NC1=C(N2CCOCC2)C(=O)c2ccccc2C1=O` [2-[(2-methylphenyl)amino]-3-(4-morpholinyl)naphthoquinone] was tested, and the Activity was “++”.
In the case of `O=C1C(Nc2ccc(F)c(F)c2)=C(N2CCOCC2)C(=O)c2ccccc21` [2-[(3,4-difluorophenyl)amino]-3-(4-morpholinyl)naphthoquinone], the Activity is reported as “+”.
`O=C1C(Nc2cc(F)cc(F)c2)=C(N2CCOCC2)C(=O)c2ccccc21` [2-[(3,5-difluorophenyl)amino]-3-(4-morpholinyl)naphthoquinone] was tested, and the Activity was “++”.
In the case of `O=C1C(Nc2cccc(Cl)c2)=C(N2CCOCC2)C(=O)c2ccccc21` [2-[(3-chlorophenyl)amino]-3-(4-morpholinyl)naphthoquinone], the Activity is reported as “++”.
`O=C1C(Nc2cccc(F)c2)=C(N2CCCC2)C(=O)c2ccccc21` [2-[(3-fluorophenyl)amino]-3-(1-pyrrolidinyl)naphthoquinone] was tested, and the Activity was “++”.
In the case of `O=C1C(Nc2cccc(O)c2)=C(N2CCCCC2)C(=O)c2ccccc21` [2-[(3-hydroxyphenyl)amino]-3-(1-piperidinyl)naphthoquinone], the Activity is reported as “+”.
`COc1cccc(NC2=C(N3CCCCC3)C(=O)c3ccccc3C2=O)c1` [2-[(3-methoxyphenyl)amino]-3-(1-piperidinyl)naphthoquinone] was tested, and the Activity was “++”.
With `COc1cccc(NC2=C(N3CCCC3)C(=O)c3ccccc3C2=O)c1` [2-[(3-methoxyphenyl)amino]-3-(1-pyrrolidinyl)naphthoquinone] the Activity was “++”.
For `COc1cccc(NC2=C(N3CCOCC3)C(=O)c3ccccc3C2=O)c1` [2-[(3-methoxyphenyl)amino]-3-(4-morpholinyl)naphthoquinone], the Activity was “++”.
With `Cc1cccc(NC2=C(N3CCCC3)C(=O)c3ccccc3C2=O)c1` [2-[(3-methylphenyl)amino]-3-(1-pyrrolidinyl)naphthoquinone] the Activity was “++”.
In the case of `Cc1cccc(NC2=C(N3CCOCC3)C(=O)c3ccccc3C2=O)c1` [2-[(3-methylphenyl)amino]-3-(4-morpholinyl)naphthoquinone], the Activity is reported as “++”.
With `Cc1ccc2c(C)nc(Nc3nc(C)cc(O)n3)nc2c1` [2-[(4,7-dimethyl-2-quinazolinyl)amino]-6-methyl-4-pyrimidinol] the Activity was “+”.
`CC(=O)c1ccc(NC2=C(N3CCCC3)C(=O)c3ccccc3C2=O)cc1` [2-[(4-acetylphenyl)amino]-3-(1-pyrrolidinyl)naphthoquinone] was tested, and the Activity was “++”.
`O=[N+]([O-])c1ccc(Nc2ccccc2O)c2nonc12` [2-[(7-nitro-2,1,3-benzoxadiazol-4-yl)amino]phenol] was tested, and the Activity was “++”.
With `Cc1ccccc1NC1=C(N)C(=O)c2ccccc2C1=O` [2-amino-3-[(2-methylphenyl)amino]naphthoquinone] the Activity was “+”.
In the case of `O=C(NN1C(=O)C(=Cc2ccc(O)c(O)c2)SC1=S)c1ccccc1Br` [2-bromo-N-[5-(3,4-dihydroxybenzylidene)-4-oxo-2-thioxo-1,3-thiazolidin-3-yl]benzamide], the Activity is reported as “+”.
`CN(C)C1=C(Cl)C(=O)c2ccccc2C1=O` [2-chloro-3-(dimethylamino)naphthoquinone] was tested, and the Activity was “++”.
`CC(C)NC1=C(Cl)C(=O)c2ccccc2C1=O` [2-chloro-3-(isopropylamino)naphthoquinone] was tested, and the Activity was “+”.
With `O=[N+]([O-])c1ccccc1NN=Cc1ccc(O)c(O)c1` [3,4-dihydroxybenzaldehyde (2-nitrophenyl)hydrazone] the Activity was “++”.
For `C=CCN1C(=O)C(=Cc2cc(Cl)cc(Cl)c2O)SC1=S` [3-allyl-5-(3,5-dichloro-2-hydroxybenzylidene)-2-thioxo-1,3-thiazolidin-4-one], the Activity was “+”.
For `NN1C(=O)C(=Cc2ccc(O)c(O)c2)SC1=S` [3-amino-5-(3,4-dihydroxybenzylidene)-2-thioxo-1,3-thiazolidin-4-one], the Activity was “+”.
`CCCCOc1cccc(C(=O)NC(=S)Nc2ccc(N(C)C)cc2)c1` [3-butoxy-N-({[4-(dimethylamino)phenyl]amino}carbonothioyl)benzamide] was tested, and the Activity was “+”.
For `CN(CCN(C)N=Cc1cccc([N+](=O)[O-])c1)N=Cc1cccc([N+](=O)[O-])c1` [3-nitrobenzaldehyde 1,2-ethanediyl(methylhydrazone)], the Activity was “+”.
With `Cc1ccc2c(c1)-c1c(s[s+]c1SCC(=O)c1ccc([N+](=O)[O-])cc1)C(C)(C)N2.[Cl-]` [4,4,8-trimethyl-1-{[2-(4-nitrophenyl)-2-oxoethyl]thio}-4,5-dihydro[1,2]dithiolo[3,4-c]quinolin-2-ium chloride] the Activity was “++”.
For `O=[N+]([O-])c1ccc(Nc2ccc(O)cc2)c2nonc12` [4-[(7-nitro-2,1,3-benzoxadiazol-4-yl)amino]phenol], the Activity was “++”.
`CN1C(=O)C(=Cc2c(Cl)ccc([N+](=O)[O-])c2Cl)SC1=S` [5-(2,6-dichloro-3-nitrobenzylidene)-3-methyl-2-thioxo-1,3-thiazolidin-4-one] was tested, and the Activity was “++”.
